The text below walks through data of patent US20090186110A1, “GUAVA EXTRACT” (priority 2005, published 2009).

This assay deals with T1, DP-IV (Homo sapiens, UniProt P27487).
T1 construct: DP-IV also exists as a soluble circulating form in plasma; from tissue; host or cells: human plasma
As to the kind of experiment: DP-IV activity colorimetric assay (Gly-Pro-4-NA substrate, human plasma). In kind it is biochemical. How it is done:
DP-IV activity was measured by a colorimetric assay.
DP-IV activity is expressed as the linear change in optical density over 20 min (Δ Abs/min).

T1 sequence (P27487 39-766 limits assumed): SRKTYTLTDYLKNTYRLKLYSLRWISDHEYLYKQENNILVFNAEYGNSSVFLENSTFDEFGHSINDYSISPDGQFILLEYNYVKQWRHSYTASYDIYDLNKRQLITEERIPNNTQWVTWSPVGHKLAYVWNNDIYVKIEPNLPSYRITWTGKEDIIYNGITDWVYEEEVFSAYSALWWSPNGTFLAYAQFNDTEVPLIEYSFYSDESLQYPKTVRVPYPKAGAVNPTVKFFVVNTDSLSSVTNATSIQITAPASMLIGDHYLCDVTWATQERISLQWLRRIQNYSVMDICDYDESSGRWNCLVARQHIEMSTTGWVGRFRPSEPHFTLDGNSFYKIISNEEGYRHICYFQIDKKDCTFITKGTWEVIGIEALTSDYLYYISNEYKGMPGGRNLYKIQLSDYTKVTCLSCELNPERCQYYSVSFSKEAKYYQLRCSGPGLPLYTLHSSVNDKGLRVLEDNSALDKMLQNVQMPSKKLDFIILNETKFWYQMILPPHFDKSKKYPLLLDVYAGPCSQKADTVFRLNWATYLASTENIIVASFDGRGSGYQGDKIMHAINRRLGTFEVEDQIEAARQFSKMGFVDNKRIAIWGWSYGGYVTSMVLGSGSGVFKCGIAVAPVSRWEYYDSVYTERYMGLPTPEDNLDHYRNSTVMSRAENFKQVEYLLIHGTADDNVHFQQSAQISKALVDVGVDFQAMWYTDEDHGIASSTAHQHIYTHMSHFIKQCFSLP

In the case of `O=c1c(O[C@@H]2OC[C@H](O)[C@H](O)[C@H]2O)c(-c2ccc(O)c(O)c2)oc2cc(O)cc(O)c12` [guaijaverin], the “DP-IV inhibition (result in words)” value is “clear, dose dependent inhibition of DP-IV”. In addition, the “concentration that yielded a DP-IV inhibition of around 50%” value (guaijaverin in HEPES buffer, tested 70-280 μg/mL) is on record as 140-210 μg/mL test assay.
